Measured values as given in PMC5618341, “Controlled inhibition of methyltransferases using photoswitchable peptidomimetics: towards an epigenetic regulation of leukemia” (Chemical Science, 2017).
Where two headings read alike, the source gives them in different places. Starred links: 1 amine or outer side, 2 acyl side, 3 side chain; linkers in the order of their positions; H or OH if unused. Positions of bridges follow the written chain, without caps; N, C: chain ends. Non-standard residues stand in square brackets, D forms with d. Residues, ends and D or L forms follow the SMILES beside them. *: point of attachment. AMPB(E) = O=C(c1ccc(/N=N/c2ccc(CN[*:1])cc2)cc1)[*:2]; AMPB = O=C(c1ccc(N=Nc2ccc(CN[*:1])cc2)cc1)[*:2]; X1 = O=C(c1ccc(/N=N\c2ccc(CN[*:1])cc2)cc1)[*:2]; d(αMeK) = C[C@@](N)(CCCCN)C(=O)O; dPhg = N[C@@H](C(=O)O)c1ccccc1; Isobutyryl = CC(C)C(=O)*; Abu = CC[C@H](N)C(=O)O; Ahx = NCCCCCC(=O)O; βAla = NCCC(=O)O

Key:
WDR5Δ23 = molecular target: T1, WDR5Δ23 (Homo sapiens, UniProt P61964); test: Fluorescence polarization (FP)-based competitive binding assay
T1 construct: His6-SUMO (N, cleaved yes); made in house; host or cells: E. coli DH5α (so in the source)

[1] = Proliferation / cell viability assay (CellTiter-Glo); format: cell-based, mouse
Description: (§1) We initially studied the cellular uptake and cell viability of our compounds in murine MLL-AF9-transduced mouse bone marrow cells (Fig. 5). In line with our expectations, peptidomimetics 16 and 17 that contained peptide 7 within their sequence are the ones that inhibited the cell proliferation of leukemia. […] Thus, while in the case of the trans isomer of peptidomimetic 16 we already determined less than 50% of viable cells at 2.5 μM concentration, with the WIN-containing conjugates 20 and 21 we measured 87% and 96% of viable cells at 50 μM concentration, respectively.
(§2) We then examined the potential of 16 and 17 to control externally the cellular response in proliferation assays. Thus, both isomers of both peptidomimetics were incubated at different concentrations for four days. After two days of incubation, the cells containing the cis isomers were irradiated at 430 nm for 90 seconds in a single isomerization cycle with a custom-made 6-well plate LED array.
(§3) MLL-AF9-transduced mouse bone marrow was cultured in IMDM medium + 15% FBS and supplemented with 10 ng/mL interleukin-3 (IL-3) at each passage, every other day.
(§4) DMSO) isomers, of peptides 7, 16, 17, as well as the peptides 18 and 19 were diluted from stock to culture media containing a 0.1% DMSO final concentration. For viability assays, […]
(§5) 72 h and DMSO as control . For the cis-trans group, after 48 h treatment with cis peptides, the plate was irradiated at […] for 90 sec and continued to culture for 2 days in the dark.
(§6) Viability was determined using the CellTiter-Glo Kit (Promega) according to the a a ’ d . was monitored on a Molecular Devices plate reader.

[2] = system: MLL-AF9-transduced mouse bone marrow cells; test: as above; format: cell-based; conditions: for Inhibition (%) of growth: 5 μM
Description: as §1, §2, §3, §4, §5, §6

[3] = molecular target: MLL1 core complex (MLL1, WDR5, RbBP5, and ASH2L) (Homo sapiens, UniProt P61964); test: biochemical
Description: To test this, we studied the inhibition of MLL1 H3K4 methyltransferase activity through the previously reported in vitro HMT assay using the MLL1 core complex (i.e. MLL1, WDR5, RbBP5, and ASH2L) and the H3 20mer peptide as substrate.[17]
In Vitro Methyl Transferase Assay with MLL1 Core Complex
In Vitro Histone Methyltransferase (HMT) Assay
The HMT assay was performed, as previously described[25] with slight modifications, in 50 mM Tris pH 8.0, 50 mM NaCl, 1.0 mM DTT, 5 mM MgCl2 at room temperature. Each reaction contained 1.5 μM of the cofactor 3H-S-adenosylmethionine (Perkin-Elmer). H31-21 peptide was used as the substrate at 250 μM. […] Reactions were initiated by addition of the H3/SAM and allowed to proceed for 60 min before preparing scintillation counting. To count samples, reactions were spotted on separate squares of P81 filter paper (Millipore) and precipitated by submerging in freshly prepared 50 mM sodium bicarbonate buffer pH = 9.0. After washing and drying, the samples were vortexed in Ultima Gold scintillation fluid and counted.

[4] = non-irradiated peptide (trans isomer), 72 nM WDR5Δ23, 20 nM tracer 22, read-out: IC50, non-irradiated (trans)
[5] = non-irradiated peptide (trans isomer), 72 nM WDR5Δ23, 20 nM tracer 22, read-out: Ki, non-irradiation (trans)
[6] = IC50 cis (with 5 nM tracer), cis isomer (366 nm), 20 nM WDR5Δ23, 5 nM tracer 22
[7] = IC50 trans (with 5 nM tracer), trans isomer, 20 nM WDR5Δ23, 5 nM tracer 22

Row | Compound | IC50 (WDR5Δ23; [4]) [µM] | Ki (WDR5Δ23; [5]) [µM] | further results
1 | CC(C)C[C@H](NC(=O)[C@H](Cc1c[nH]cn1)NC(=O)[C@@H](NC(=O)[C@H](CCC(=O)O)NC(=O)[C@H](C)NC(=O)[C@H](CCCNC(=N)N)NC(=O)[C@H](C)NC(=O)[C@@H](N)CO)C(C)C)C(=O)NCc1ccc(N=Nc2ccc(C(=O)N[C@@H](CCCCN)C(=O)N[C@@H](CO)C(N)=O)cc2)cc1 [peptide 11, H2N-SARAEVHLXKS-CONH2] (H-SARAEVHL[AMPB]KS-NH2) | 2.14 ± 0.28 | 0.0328 ± 0.0045 | 
2 | H2N-SXARAEVHLRKS-CONH2 [peptide 4, X = AMPB] |  |  | binding constant to WDR5 (in words) (WDR5Δ23; both isomers): not possible to obtain measurable binding constants
3 | CC(C)C[C@H](NC(=O)[C@H](Cc1c[nH]cn1)NC(=O)[C@@H](NC(=O)[C@H](CCC(=O)O)NC(=O)[C@H](C)NC(=O)[C@H](CCCNC(=N)N)NC(=O)[C@H](C)NC(=O)[C@@H](N)CO)C(C)C)C(=O)N[C@@H](CCCNC(=N)N)C(=O)N[C@@H](CCCCN)C(=O)N[C@@H](CO)C(=O)N[C@@H](CCCNC(=N)N)C(=O)N[C@@H](CCCNC(=N)N)C(=O)N[C@@H](CCCNC(=N)N)C(=O)N[C@@H](CCCNC(=N)N)C(=O)N[C@@H](CCCNC(=N)N)C(=O)N[C@@H](CCCNC(=N)N)C(=O)N[C@@H](CCCNC(=N)N)C(=O)N[C@@H](CCCNC(=N)N)C(N)=O [peptide 20] (H-SARAEVHLRKSRRRRRRRR-NH2) | 0.368 ± 0.02 | 0.00483 ± 0.00031 | viability at 50 µM [1]: 87%
4 | CC(C)C[C@H](NC(=O)[C@H](Cc1c[nH]cn1)NC(=O)[C@@H](NC(=O)[C@H](CCC(=O)O)NC(=O)[C@H](C)NC(=O)[C@H](CCCNC(=N)N)NC(=O)[C@H](C)NC(=O)[C@@H](N)CO)C(C)C)C(=O)N[C@@H](CCCNC(=N)N)C(=O)N[C@@H](CCCCN)C(=O)N[C@@H](CO)C(=O)N[C@@H](CCCNC(=N)N)C(=O)NCCCCCC(=O)N[C@@H](CCCNC(=N)N)C(=O)N[C@@H](CCCNC(=N)N)C(=O)NCCCCCC(=O)N[C@@H](CCCNC(=N)N)C(=O)N[C@@H](CCCNC(=N)N)C(=O)NCCCCCC(=O)N[C@@H](CCCNC(=N)N)C(=O)N[C@@H](CCCNC(=N)N)C(=O)NCCCCCC(=O)N[C@@H](CCCNC(=N)N)C(=O)NCCCCCC(=O)NCCC(N)=O [peptide 21] (H-SARAEVHLRKSR[Ahx]RR[Ahx]RR[Ahx]RR[Ahx]R[Ahx][βAla]-NH2) | 0.612 ± 0.02 | 0.00867 ± 0.00032 | viability at 50 µM [1]: 96%
5 | CC(=O)N[C@@H](C)C(=O)N[C@@H](CCCNC(=N)N)C(=O)N[C@@H](C)C(=O)NCc1ccc(N=Nc2ccc(C(=O)N[C@H](C(=O)N[C@@H](Cc3c[nH]cn3)C(=O)N[C@@H](CC(C)C)C(=O)N[C@@H](CCCNC(=N)N)C(=O)N[C@@H](CCCCN)C(=O)N[C@@H](CO)C(N)=O)C(C)C)cc2)cc1 [peptide 14, Ac-ARAXVHLRKS-CONH2] (Ac-ARA[AMPB]VHLRKS-NH2) |  | 0.00145 ± 0.00052 | IC50 (WDR5Δ23; [6]): 0.102 ± 0.015 µM; IC50 (WDR5Δ23; [7]): 0.045 ± 0.011 µM; Ki (WDR5Δ23; Ki cis (with 5 nM tracer), cis isomer (366 nm), 20 nM WDR5Δ23, 5 nM tracer 22): 0.0045 ± 0.00082 µM; Ki (WDR5Δ23; Ki trans (with 5 nM tracer), trans isomer, 20 nM WDR5Δ23, 5 nM tracer 22): 0.0015 ± 0.00063 µM
6 | CC(C)C[C@H](NC(=O)[C@H](Cc1c[nH]cn1)NC(=O)[C@@H](NC(=O)c1ccc(/N=N/c2ccc(CNC(=O)[C@H](C)NC(=O)[C@H](CCCNC(=N)N)NC(=O)[C@H](C)NC(=O)[C@@H](N)CO)cc2)cc1)C(C)C)C(=O)N[C@@H](CCCNC(=N)N)C(=O)N[C@@H](CCCCN)C(=O)N[C@@H](CO)C(N)=O [7trans, H2N-SARAXVHLRKS-CONH2] (H-SARA[AMPB(E)]VHLRKS-NH2) |  |  | Inhibition (%) of growth ([2]; 96 h incubation): 0%; IC50 (WDR5Δ23; [7]): 0.057 ± 0.011 µM; IC50 [3]: 0.531 ± 0.023 µM
7 | CC(C)C[C@H](NC(=O)[C@H](Cc1c[nH]cn1)NC(=O)c1ccc(N=Nc2ccc(CNC(=O)[C@H](CCC(=O)O)NC(=O)[C@H](C)NC(=O)[C@H](CCCNC(=N)N)NC(=O)[C@H](C)NC(=O)[C@@H](N)CO)cc2)cc1)C(=O)N[C@@H](CCCNC(=N)N)C(=O)N[C@@H](CCCCN)C(=O)N[C@@H](CO)C(N)=O [peptide 8, H2N-SARAEXHLRKS-CONH2] (H-SARAE[AMPB]HLRKS-NH2) | 0.21 ± 0.035 | 0.0024 ± 0.0006 | 
8 | CC(=O)N[C@@H](C)C(=O)N[C@@H](CCCNC(=N)N)C(=O)N[C@H](C(=O)NCc1ccc(N=Nc2ccc(C(=O)N[C@H](C(=O)N[C@@H](Cc3ccc(O)cc3)C(N)=O)C(C)C)cc2)cc1)[C@@H](C)O [peptide 15, Ac-ARTXVY-CONH2] (Ac-ART[AMPB]VY-NH2) | 0.109 ± 0.01 | 0.000767 ± 0.00015 | 
9 | CC(C)C[C@H](NC(=O)[C@H](Cc1c[nH]cn1)NC(=O)[C@@H](NC(=O)c1ccc(/N=N\c2ccc(CNC(=O)[C@H](C)NC(=O)[C@H](CCCNC(=N)N)NC(=O)[C@H](C)NC(=O)[C@@H](N)CO)cc2)cc1)C(C)C)C(=O)N[C@@H](CCCNC(=N)N)C(=O)N[C@@H](CCCCN)C(=O)N[C@@H](CO)C(=O)N[C@@H](CCCNC(=N)N)C(=O)N[C@@H](CCCNC(=N)N)C(=O)N[C@@H](CCCNC(=N)N)C(=O)N[C@@H](CCCNC(=N)N)C(=O)N[C@@H](CCCNC(=N)N)C(=O)N[C@@H](CCCNC(=N)N)C(=O)N[C@@H](CCCNC(=N)N)C(=O)N[C@@H](CCCNC(=N)N)C(N)=O [16cis, H2N-SARA-AMPB-VHLRKS-R8-NH2] (H-SARA[X1]VHLRKSRRRRRRRR-NH2) |  |  | GI50 ([2]; 96 h): 2.88 ± 0.24 µM
10 | CC[C@@H]1NC(=O)[C@H](CCCN=C(N)N)NC(=O)[C@](C)(NC(=O)C(C)C)CCCCNC(=O)[C@@H](c2ccccc2)NC1=O [MM401, reference compound] (Isobutyryl-[d(αMeK)]R[Abu][dPhg]; lactam 1-C) |  |  | GI50 ([2]; 96 h incubation, cis isomers kept in the dark, read-out: GI50): 9.76 µM
11 | CC(C)C[C@H](NC(=O)[C@H](Cc1c[nH]cn1)NC(=O)[C@@H](NC(=O)[C@H](CCC(=O)O)NC(=O)[C@H](C)NC(=O)[C@H](CCCNC(=N)N)NC(=O)c1ccc(N=Nc2ccc(CNC(=O)[C@@H](N)CO)cc2)cc1)C(C)C)C(=O)N[C@@H](CCCNC(=N)N)C(=O)N[C@@H](CCCCN)C(=O)N[C@@H](CO)C(N)=O [peptide 5, H2N-SXRAEVHLRKS-CONH2] (H-S[AMPB]RAEVHLRKS-NH2) | 3.91 ± 0.83 | 0.0668 ± 0.01 | 
12 | CC(C)C[C@H](NC(=O)[C@H](Cc1c[nH]cn1)NC(=O)c1ccc(N=Nc2ccc(CNC(=O)[C@H](C)NC(=O)[C@H](CCCNC(=N)N)NC(=O)[C@H](C)NC(=O)[C@@H](N)CO)cc2)cc1)C(=O)N[C@@H](CCCNC(=N)N)C(=O)N[C@@H](CCCCN)C(=O)N[C@@H](CO)C(N)=O [peptide 13, H2N-SARAXHLRKS-CONH2] (H-SARA[AMPB]HLRKS-NH2) | 0.293 ± 0.05 | 0.00363 ± 0.0008 | 
13 | CC(C)C[C@H](NC(=O)c1ccc(N=Nc2ccc(CNC(=O)[C@@H](NC(=O)[C@H](CCC(=O)O)NC(=O)[C@H](C)NC(=O)[C@H](CCCNC(=N)N)NC(=O)[C@H](C)NC(=O)[C@@H](N)CO)C(C)C)cc2)cc1)C(=O)N[C@@H](CCCNC(=N)N)C(=O)N[C@@H](CCCCN)C(=O)N[C@@H](CO)C(N)=O [peptide 9, H2N-SARAEVXLRKS-CONH2] (H-SARAEV[AMPB]LRKS-NH2) | 2.53 ± 0.39 | 0.0404 ± 0.0039 | 
14 | CC(C)[C@H](NC(=O)[C@H](CCC(=O)O)NC(=O)[C@H](C)NC(=O)[C@H](CCCNC(=N)N)NC(=O)[C@H](C)NC(=O)[C@@H](N)CO)C(=O)N[C@@H](Cc1c[nH]cn1)C(=O)NCc1ccc(N=Nc2ccc(C(=O)N[C@@H](CCCNC(=N)N)C(=O)N[C@@H](CCCCN)C(=O)N[C@@H](CO)C(N)=O)cc2)cc1 [peptide 10, H2N-SARAEVHXRKS-CONH2] (H-SARAEVH[AMPB]RKS-NH2) | 1.15 ± 0.12 | 0.017 ± 0.0019 | 
15 | CC(C)C[C@H](NC(=O)[C@H](Cc1c[nH]cn1)NC(=O)[C@@H](NC(=O)[C@H](CCC(=O)O)NC(=O)[C@H](C)NC(=O)[C@H](CCCNC(=N)N)NC(=O)[C@H](C)NC(=O)[C@@H](N)CO)C(C)C)C(=O)N[C@@H](CCCNC(=N)N)C(=O)NCc1ccc(N=Nc2ccc(C(=O)N[C@@H](CO)C(N)=O)cc2)cc1 [peptide 12, H2N-SARAEVHLRXS-CONH2] (H-SARAEVHLR[AMPB]S-NH2) | 1.32 ± 0.11 | 0.0198 ± 0.0017 | 
16 | CC(C)C[C@H](NC(=O)[C@H](Cc1c[nH]cn1)NC(=O)[C@@H](NC(=O)c1ccc(/N=N\c2ccc(CNC(=O)[C@H](C)NC(=O)[C@H](CCCNC(=N)N)NC(=O)[C@H](C)NC(=O)[C@@H](N)CO)cc2)cc1)C(C)C)C(=O)N[C@@H](CCCNC(=N)N)C(=O)N[C@@H](CCCCN)C(=O)N[C@@H](CO)C(N)=O [7cis, H2N-SARAXVHLRKS-CONH2] (H-SARA[X1]VHLRKS-NH2) |  |  | Inhibition (%) of growth ([2]; 96 h incubation): ≈ 0%; IC50 (WDR5Δ23; [6]): 0.147 ± 0.014 µM; IC50 [3]: 8.23 ± 0.38 µM
